We go through 46 molecules from patent publication US10889553B2, “Asymmetric triazole benzamide derivatives and the compositions and methods of treatment regarding the same” (NysnoBio Ireland DAC, priority 2017, dated 2021).

The term EC50 denotes the concentration needed to bring the measured effect to its halfway point.

The test concerns the target T1, Parkin ligase (Homo sapiens, UniProt O60260).
T1 sequence (O60260 1-465): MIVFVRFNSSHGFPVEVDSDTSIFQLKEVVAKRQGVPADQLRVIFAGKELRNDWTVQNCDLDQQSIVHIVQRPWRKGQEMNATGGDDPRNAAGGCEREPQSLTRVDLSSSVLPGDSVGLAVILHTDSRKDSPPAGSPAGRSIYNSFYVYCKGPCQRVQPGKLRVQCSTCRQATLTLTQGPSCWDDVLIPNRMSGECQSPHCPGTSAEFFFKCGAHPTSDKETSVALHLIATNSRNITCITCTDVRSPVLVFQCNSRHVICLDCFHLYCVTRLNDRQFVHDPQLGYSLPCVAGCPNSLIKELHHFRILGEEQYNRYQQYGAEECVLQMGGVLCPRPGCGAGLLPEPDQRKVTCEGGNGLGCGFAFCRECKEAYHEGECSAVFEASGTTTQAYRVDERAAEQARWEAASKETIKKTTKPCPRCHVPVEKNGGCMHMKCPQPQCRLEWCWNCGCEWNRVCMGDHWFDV
Put plainly: Activity-Based Probe Assay using Ubiquitin vinyl sulfone probe (TR-FRET). Format: biochemical. As to conditions: heat activated Parkin, HA-Ub-VS probe, activation EC50; read-out: Probe Assay EC50 (μM) [Example 2]. The method, then:
An Ubiquitin vinyl sulfone probe can be used that irreversibly binds to the active site cysteine of Parkin ligase. Covalent attachment of the probe to the Parkin can be monitored by TR-FRET. Candidate activator compounds can be identified by increasing the activity of Parkin ligase due to an increase in TR-FRET signal. Screening for activating compounds can be distinguished from the controls as follows: 100% activation signal=Heat activated Parkin+100 nM control activator in DMSO. 0% activation signal=Heat activated Parkin+DMSO only. Parkin activators can be identified by an increase of the 0% activation signal TR-FRET signal. Assay Conditions: Materials: • Assay Plate: White 384 well plate (Corning 3572) • Enzyme: Parkin-His tagged 203 μM (10.5 mg/ml) • Probe: Ubiquitin vinyl-sulfone (HA-Ub-VS Boston Biochem U-212) • DMSO: DMSO (Sigma cat #D4540-100ML) • Reaction Buffer: 50 mM HEPES (pH 8.5), 150 mM NaCl, 0.01% Tween 20, 0.1% BSA • Detection Buffer: 50 mM HEPES (pH 8.5), 150 mM NaCl, 0.01% Tween 20, 0.1% BSA, 800 mM KF • Detection Reagent A: 2.6 nM Anti-6HIS-Eu cryptate and 40 nM Anti-HA-XL665 in detection buffer • Eu cryptate: Anti-6HIS-Eu cryptate (CisBio 61HISKLA) • XL665: Anti-HA-XL665 (CisBio 610HAXLA) Enzyme Reaction (15 Min Pre Incubation Parkin with Activator Only) • Parkin: 40 nM • HA-Ub-VS Probe: 70 nM • Activator/DMSO: 2× Activator/2% DMSO Reaction time: 60 minutes Temperature: 22° C. Total volume: 10 μl reaction Detection Reaction Take […] of Enzyme Reaction above and add 10 μl detection Reagent A under the following conditions: • Reaction time: 60 minutes • Temperature: 22° C. • Total volume: 20 μl
Assay procedure (Using HP D-300 compound dispenser and Bravo for the operation):
1) Heat activate Parkin in reaction buffer (500 μl/1.5 ml tube: Eppendorf Thermomixer 5 minutes, 400 rpm at 58° C. and put on ice until needed).
2) Load assay plate wells with 4.8 μl 84.5 nM Parkin in reaction buffer by use of Bravo.
3) Deliver 0.2 μl 200× activator candidates in DMSO by use of HP D-300 compound dispenser. Highest 200× concentration=[…] and then twofold dilutions.
4) Spin 1000 rpm, 2 minutes, at room temp.
5) Incubate plate for 15 minutes at room temp.
6) Add 5 μl 140 nM HA-Ub-VS Probe in reaction buffer by use of Bravo.
7) Spin 1000 rpm, 2 minutes, at room temp.
8) Incubate plate for 60 minutes at room temp.
9) Add 10 μl 2.6 nM Anti-6HIS-Eu cryptate and 40 nM […] in detection buffer.
10) Spin 1000 rpm, 2 minutes, at room temp.
11) Incubate plate for 60 minutes at room temp.
12) Read plates on Perkin Elmer Envision instrument with the following parameters:
LANCE dual laser protocol loaded into the Envision® software
Top Mirror: LANCE/DELFIA Duel/Bias (Bar code 446)
Emission Filter: APC 665 EM (Bar code 205)
2nd Emission Filter: Europium 615 EM (Bar code 203)
Read 655 nm (channel 1) and 615 nm (channel 2) wavelengths on Envision®
Data Analysis: The Data can be read in CSV files. There are two tables in those CSV files, which are the values of 655 nm (channel 1) and 615 nm (channel 2) wavelengths respectively. The data is converted to an HTRF Ratio=(Channel 1/Channel 2)*10,000
The average of all the 0 μM controls (DMSO only)=BKGD (Background—0% activation). Subtract BKGD from each HTRF Ratio value=HTRF−BKGD. The average of all the […] 100 nM control activator in DMSO controls=Max (100% activation). The following equation is then used to calculate % Activation for each well/candidate as follows: % Activation=(HTRF−BKGD/Max)*100.
Graphpad Prism was used with Transform X values: X=Log(X) and nonlinear regression (dose-response-stimulation): Log(agonist) vs Response−variable slope (four parameters) with constrains set to Bottom=0 and Top=100.
The Activity-Based Probe Assay was performed with various compounds in Tables 1, 2, 3A and 3B.
On the technique in general: In TR-FRET formats the signal depends on donor and acceptor labels being close together.

“And” between values parts separate entries of the source, which are not always exact repeats. Equal values may be shown once. Where only a bound is given, the exact number is not on record here.

Turning to `Cc1ccccc1C(=O)Nc1nc(NC(=O)c2ccccc2C)n(-c2ccc3c(c2)CCO3)n1` [Compound 1], the EC50 is 52 µM and > 100 µM.

Regarding `Cc1ccccc1C(=O)Nc1nc(NC(=O)[C@@H]2C[C@@H](F)CN2)nn1-c1ccccc1` [Compound 4], the EC50 was 38 µM and 24 µM.

`Cc1ccccc1C(=O)Nc1nc(NC(=O)C2CCCNC2)n(-c2ccccc2)n1` (stereo not shown) [Compound 14]: the EC50 was above 100 µM.

Turning to `Cc1ccccc1C(=O)Nc1nc(NC(=O)C2CCCN2)n(-c2ccccc2)n1` (stereo not shown) [Compound 15], the EC50 was above 100 µM.

Turning to `Cc1ccccc1C(=O)Nc1nc(NC(=O)C2CCCNC2)nn1-c1ccccc1` (stereo not shown) [Compound 19], the concentration for a half-maximal effect (EC50) was above 100 µM.

For the molecule `Cc1ccccc1C(=O)Nc1nc(NC(=O)c2cn(C)cn2)n(-c2ccccc2)n1` [Compound 22], the EC50 is above 100 µM.

Take `Cc1ccccc1C(=O)Nc1nc(NC(=O)C2CNC2)nn1-c1ccccc1` [Compound 43]: the EC50 was above 100 µM.

With `Cc1ccccc1C(=O)Nc1nc(NC(=O)C2CCN(CCC#N)CC2)nn1-c1ccccc1` [Compound 45], the EC50 is above 100 µM.

Turning to `Cc1ccccc1C(=O)Nc1nc(NC(=O)c2ccccc2C)n(-c2cnn(C)c2)n1` [Compound 47], the EC50 worked out at 16 µM.

On to `C#Cc1ccc(C(=O)Nc2nc(NC(=O)c3cccc(N=[N+]=[N-])c3)nn2-c2ccccc2)cc1` [Compound 48], for which the EC50 was 2 µM.

Turning to `O=C(Nc1nc(NC(=O)C2CCCCN2)n(-c2ccccc2)n1)C1CCCCN1` (stereo not shown) [Compound 49], the EC50 was above 100 µM.

For `Cc1ccccc1C(=O)Nc1nc(-c2ccc(F)cn2)nn1-c1ccccc1` [Compound 50], the EC50 is above 100 µM.

Turning to `Cc1ccccc1C(=O)Nc1nc(NC(=O)C2CCCCN2)nn1-c1ccccc1` (stereo not shown) [Compound 51], the EC50 was found to be 84 µM.

Regarding `O=C(Nc1nc(Nc2cccc3ccccc23)n(-c2ccccc2)n1)c1ccccc1` [Compound 52], the half-maximal effective concentration (EC50) was found to be 61 µM.

Turning to `C#Cc1ccc(C(=O)Nc2nc(NC(=O)c3ccc(N=[N+]=[N-])cc3)nn2-c2ccccc2)cc1` [Compound 53], the EC50 is above 100 µM.

As for `Cc1ccccc1C(=O)Nc1nc(NC(=O)c2ccccc2C)n(-c2ccc(N3CCOCC3)cc2)n1` [Compound 54], the EC50 was 10 µM.

`O=C(Nc1nc(NC(=O)c2c(F)c(F)c(F)c(F)c2F)n(-c2ccccc2)n1)c1ccccc1` [Compound 55]: the EC50 stood at 12 µM.

As to `O=C(Nc1nc(NC(=O)C2CCCNC2)n(-c2ccccc2)n1)C1CCCNC1` (stereo not shown) [Compound 56], the EC50 is above 100 µM.

As to `Cc1ccccc1C(=O)Nc1nc(NC(=O)c2ccccc2C)n(-c2ccc(N3CCNCC3)cc2)n1` [Compound 57], the concentration for a half-maximal effect (EC50) was above 100 µM.

With `Cc1ccccc1C(=O)Nc1nc(NC(=O)c2cccc(N=[N+]=[N-])c2)nn1-c1ccccc1` [Compound 66], the EC50 turned out to be 8 µM.

With `Cc1ccccc1C(=O)Nc1nc(NC(=O)c2ccccc2C)n(-c2ccc(N3CCN(C)CC3)cc2)n1` [Compound 68], the EC50 amounted to 24 µM.

As to `Cc1ccccc1C(=O)Nc1nc(NC(=O)c2cccc(N=[N+]=[N-])c2)n(-c2ccccc2)n1` [Compound 69], the EC50 stood at 4 µM.

With `Cc1ccccc1C(=O)Nc1nc(NC(=O)c2ccc(N=[N+]=[N-])cc2)n(-c2ccccc2)n1` [Compound 70], the EC50 is 4 µM.

For the molecule `O=C(Nc1nc(NC(=O)c2cccnc2)n(-c2cccc(F)c2)n1)c1cccnc1` [Compound 72], the EC50 amounted to 2 µM.

With `Cc1ccccc1C(=O)Nc1nc(NC(=O)c2ccc(N=[N+]=N)cc2)n(-c2ccc(OC(F)(F)F)cc2)n1` [Compound 74], the concentration for a half-maximal effect (EC50) was found to be 0.9 µM.

Regarding `Cc1ccccc1C(=O)Nc1nc(NC(=O)c2ccc(N=[N+]=[N-])cc2)nn1-c1ccc(OC(F)(F)F)cc1` [Compound 76], the EC50 turned out to be 34 µM.

Turning to `Cc1ccccc1C(=O)Nc1nc(NC(=O)c2cccc(N=[N+]=[N-])c2)nn1-c1ccc(OC(F)(F)F)cc1` [Compound 77], the EC50 was 6 µM.

Take `O=C(Nc1nc(NC(=O)c2c(F)c(F)c(F)c(F)c2F)nn1-c1ccccc1)c1ccccc1` [Compound 78]: the EC50 is 0.2 µM and 0.4 µM and 0.5 µM.

In the case of `Cc1ccccc1C(=O)Nc1nc(NC(=O)c2cccc(N=[N+]=[N-])c2)n(-c2ccc(OC(F)(F)F)cc2)n1` [Compound 79], the EC50 was 1 µM.

Consider `Cc1ccccc1C(=O)Nc1nc(NC(=O)c2ccncc2)nn1-c1ccc(OC(F)(F)F)cc1` [Compound 80], for which the concentration giving a half-maximal response (EC50) stood at 3 µM.

For the molecule `O=C(Nc1nc(NC(=O)c2cccnc2)n(-c2ccc(Cl)cc2)n1)c1cccnc1` [Compound 81], the EC50 came to 3 µM.

In the case of `O=C(Nc1nc(NC(=O)c2ccncc2)n(-c2ccc(Cl)cc2)n1)c1ccncc1` [Compound 82], the concentration for a half-maximal effect (EC50) came out at 2 µM.

As for `O=S(=O)(Nc1nc(NS(=O)(=O)c2ccccc2)n(-c2ccccc2)n1)c1ccccc1` [Compound 83], the concentration for a half-maximal effect (EC50) was above 100 µM.

In the case of `Cc1ccccc1C(=O)Nc1nc(NCc2ccccc2)nn1-c1ccccc1` [Compound 84], the EC50 was 4 µM.

On to `Cc1ccccc1C(=O)Nc1nc(NC(=O)c2ccncc2)nn1-c1ccc(C(F)(F)F)cc1` [Compound 85], for which the EC50 was 3 µM.

Regarding `Cc1ccccc1C(=O)Nc1nc(NC(=O)c2cccnc2)nn1-c1ccc(OC(F)(F)F)cc1` [Compound 86], the EC50 is 6 µM.

With `Cc1ccccc1C(=O)Nc1nc(NC(=O)c2cccnc2)nn1-c1cccc(F)c1` [Compound 87], the EC50 is 7 µM.

For `CCc1ccccc1C(=O)Nc1nc(NC(=O)c2ccccc2CC)n(-c2ccccc2)n1` [Compound 88], the EC50 came out at 5 µM.

As for `Cc1ccccc1C(=O)Nc1nc(NC(=O)c2ccncc2)nn1-c1cccc(F)c1` [Compound 89], the EC50 was 2 µM.

For `O=C(Nc1ccccc1)c1nc(C(=O)Nc2ccccc2)n(-c2ccccc2)n1` [Compound 90], the EC50 is above 100 µM.

For the molecule `Cc1ccccc1C(=O)Nc1nc(NCCc2ccccc2)nn1-c1ccccc1` [Compound 91], the EC50 is 2 µM.

With `Cc1ccccc1C(=O)Nc1nc(NC(=O)c2ccncc2)nn1-c1ccc(Cl)cc1` [Compound 92], the EC50 was 2 µM.

As for `Cc1cncc(F)c1C(=O)Nc1nc(NC(=O)c2c(C)cncc2F)n(-c2ccccc2)n1` [Compound 93], the EC50 was above 100 µM.

Take `Cc1ccccc1C(=O)Nc1nc(NC(=O)c2cccnc2)nn1-c1ccc(C(F)(F)F)cc1` [Compound 94]: the EC50 worked out at 4 µM.

`Cc1ccccc1C(=O)Nc1nc(NC(=O)c2cccnc2)nn1-c1ccc(Cl)cc1` [Compound 95]: the EC50 worked out at 4 µM.

In the case of `O=C(Nc1nc(NC(=O)c2ccnc(O)c2)n(-c2ccccc2)n1)c1ccnc(O)c1` [Compound 96], the EC50 was 11 µM and 8 µM.
